According to PMC10817174, “Integrated drug response prediction models pinpoint repurposed drugs with effectiveness against rhabdomyosarcoma” (PLOS ONE, 2024):
“Also recorded” adds a separate entry of the source. Like-named read-outs stand apart in the source and are kept apart here.

B1: rTRAIL: GDSC anti-cancer compound (protein, UniProt P50591 1-281, looked up)
Tumor necrosis factor ligand …: MAMMEVQGGPSLGQTCVLIVIFTVLLQSLCVAVTYVYFTNELKQMQDKYSKSGIACFLKEDDSYWDPNDEESMNSPCWQVKWQLRQLVRKMILRTSEETISTVQEKQQNISPLVRERGPQRVAAHITGTRGRSNTLSSPNSKNEKALGRKINSWESSRSGHSFLSNLHLRNGELVIHEKGFYYIYSQTYFRFQEEIKENTKNDKQMVQYIYKYTSYPDPILLMKSARNSCWSKDAEYGLYSIYQGGIFELKENDRIFVSVTNEHLIDMDHEASFFGAFLVG

Legend:
[1] = system: RD (human embryonal rhabdomyosarcoma) cells; assay: MTT cell viability assay in RD cells; format: cell-based; details: 24 h; for anti-proliferation / anti-cancer activity in RD cells: in words; for IC50: RD-S drugs, RD cells, read-out: IC50(μM) RMS
Excerpt: (§1) The RD (human embryonal rhabdomyosarcoma) and CCD-18Co (human colon fibroblast) cell lines were purchased from the Korean Cell Line Bank (KCLB). SJCRH30 (human alveolar rhabdomyosarcoma) cell line was purchased from the American Type Culture Collection (ATCC). RD and CCD-18Co cells were maintained in Dulbecco’s Modified Eagle’s Medium (DMEM; Gibco) supplemented with 10% fetal bovine serum (FBS; Gibco) and 1% penicillin/streptomycin (P/S; Gibco). SJCRH30 cells were maintained in Roswell Park Memorial Institute medium (RPMI 1640, Gibco) supplemented with 10% FBS and 1% P/S. Cells were grown in a humidified chamber containing 5% CO2 at 37°C. Cell line authentication was performed by short tandem repeat profile using PowerPlex® 18D system (Promega Corporation) and sequencing apparatus Applied Biosystems 3130xl Genetic Analyzer (Applied Biosystem) according to manufacturer’s protocol.
(§2) SJCRH30, RD, and CCD-18Co cells were seeded at 2 × 10^4 cells/well in 96-well plates. The candidate drugs were treated for 24 h. AZ628, BIX02189, fedratinib, nutlin-3a, VX-11e, SB590885, NSC207895, tubastatin A, CX-5461, navitoclax, GSK1070916 and the FDA-approved drug library were purchased from Selleckchem. GW.44175 was purchased from Cayman chemical. MTT (3-(4,5-Dimethylthiazol-2-yl)-2,5-Diphenyltetrazolium bromide, Sigma) cell viability detection reagent diluted in serum free medium was added to each well and incubated for 2 h at 37°C. The supernatant was removed, and 50 μL DMSO was added to dissolve the precipitate. Absorbance was measured at 570 nm using a Molecular Devices VersaMax microplate reader and SoftMax® Pro 5 software. IC50 was calculated with GraphPad Prism 7 software.

[2] = system: CCD-18Co (human colon fibroblast) cells; assay: MTT cell viability assay in normal control cells; format: cell-based; details: for IC50 / IC50(μM) CCD-18Co: normal cell control, 24 h; for selective anti-cancer activity against the RMS cell lines: based on the CCD-18Co control results
Excerpt: as §1, §2

GDSC-RD cell line = details: cited from earlier work; for Iorio_RD: Table S2, published drug response ref Iorio et al. (2016)
GDSC-SJCRH30 cell line = details: cited from earlier work; for Iorio_SJCRH30: Table S2, published drug response ref Iorio et al. (2016)
[3] = system: SJCRH30 (human alveolar rhabdomyosarcoma) cells; assay: MTT cell viability assay in SJCRH30 cells; format: cell-based; details: 24 h; for anti-proliferation / anti-cancer activity in SJCRH30 cells: in words; for IC50: SJ-S drugs, SJCRH30 cells, read-out: IC50(μM) RMS
Excerpt: as §1, §2

SJCRH30 cells = assay: Caspase-3/7 activity assay in SJCRH30 cells; format: cell-based, human; details: 24 h
Protocol: (§3) The activity of caspase-3/7 was detected with the CellEvent^TM Caspase-3/7 Green detection kit (Thermo Fisher Scientific, C10423), following the manufacturer’s instructions. SJCRH30 and RD cells were seeded at 2 × 10^4 cells/well in 96-well plates. […] Stained cells were observed under fluorescent microscopy (LEICA, DMI3000 B). Drugs were treated in triplicates and 4 pictures of each well were captured. The percentage of caspase-3/7 positive cells per field of view was quantified using ImageJ software.

[4] = heavily pre-treated soft-tissue sarcoma patients ref 43; cited from earlier work
uterine sarcoma = details: in vitro and in vivo ref 44; cited from earlier work
RD cells = assay: Caspase-3/7 activity assay in RD cells; format: cell-based, human; details: 24 h
Protocol: as §3

Ewing’s sarcoma = system: Ewing’s sarcoma; design: method as in PMID 26095524; details: Ewing’s sarcoma ref 42; cited from earlier work
[5] = Homo sapiens, Rhabdomyosarcoma cell

Molecule | Iorio_RD (GDSC-RD cell line) | Iorio_SJCRH30 (GDSC-SJCRH30 cell line) | anti-proliferation / anti-cancer activity in SJCRH30 cells [3] | also measured
Cc1cnc(Nc2ccc(F)cc2Cl)nc1-c1c[nH]c(C(=O)N[C@H](CO)c2cccc(Cl)c2)c1 [VX-11e] | S | R |  | anti-proliferation / anti-cancer activity in RD cells [1]: higher anti-cancer activity; IC50 [1]: 3.79 µM; IC50 ([2]; MTT): 4.04 µM
CC1(C)CCC(c2ccc(Cl)cc2)=C(CN2CCN(c3ccc(C(=O)NS(=O)(=O)c4ccc(N[C@H](CCN5CCOCC5)CSc5ccccc5)c(S(=O)(=O)C(F)(F)F)c4)cc3)CC2)C1 [Navitoclax] |  | R | higher anti-cancer activity | IC50 [3, 5]: 0.764 µM; IC50 ([2]; Homo sapiens, CCD-18Co, MTT): 0.319 µM
CCn1cc(-c2ccnc3[nH]c(-c4cccc(CN(C)C)c4)cc23)c(-c2ccc(NC(=O)N(C)C)cc2)n1 [GSK1070916] | R | R | higher anti-cancer activity | IC50 [3, 5]: 1.4 µM; IC50(μM) CCD-18Co ([2]; MTT): No cytotoxicity
CN(C)CCOc1ccc(-c2nc(-c3ccncc3)c(-c3ccc4c(c3)CC/C4=N\O)[nH]2)cc1 [SB590885] |  | R |  | anti-proliferation / anti-cancer activity in RD cells [1]: higher anti-cancer activity; IC50 ([1]; Homo sapiens): 2.52 µM; IC50 ([2]; Homo sapiens, CCD-18Co, MTT): 4.88 µM
CCc1cc2c(cc1N1CCC(N3CCOCC3)CC1)C(C)(C)c1[nH]c3cc(C#N)ccc3c1C2=O [Alectinib] | R | S | higher anti-cancer activity | IC50 [3, 5]: 3.21 µM; IC50 ([2]; Homo sapiens, CCD-18Co, MTT): 5.96 µM
O=C(CCCCCCC(=O)Nc1ccccc1)NO [Vorinostat] |  | S | higher anti-cancer activity; also recorded: reduced cells proliferation to a greater degree than the clinical drugs | caspase-3/7 activation (SJCRH30 cells): increased level of caspase-3/7 activation; patients with long-term disease stabilization [4]: 6 of the 40; uterine sarcoma growth (uterine sarcoma): inhibited the uterine sarcoma growth
CN1CCN(c2ccc([N+](=O)[O-])c3no[n+]([O-])c23)CC1 [NSC207895] | S | R |  | anti-proliferation / anti-cancer activity in RD cells [1]: higher anti-cancer activity; also recorded: effectively inhibited cell proliferation compared to vincristine and cyclophosphamide; IC50 [1]: 6.57 µM; selective anti-cancer activity against the RMS cell lines [2]: selective anti-cancer activity; IC50(μM) CCD-18Co ([2]; MTT): No cytotoxicity; caspase-3/7 activation (RD cells): significantly induced the activation of caspase-3/7; apoptosis induction (Ewing’s sarcoma): induces p53-independent apoptosis
Cc1cnc(Nc2ccc(OCCN3CCCC3)cc2)nc1Nc1cccc(S(=O)(=O)NC(C)(C)C)c1 [fedratinib] | R | R | high non-selective anti-proliferation activity; also recorded: high in vitro sensitivity | anti-proliferation / anti-cancer activity in RD cells [1]: high non-selective anti-proliferation activity; also recorded: high in vitro sensitivity; toxicity toward the CCD-18Co control line ([2]; MTT, in words): toxicity toward the control line; also recorded: highly sensitive; GDSC-RD drug response (GDSC-RD cell line): resistance
O=C(/C=C/c1cccc(S(=O)(=O)Nc2ccccc2)c1)NO [Belinostat] | R | R | higher anti-cancer activity; also recorded: reduced cells proliferation to a greater degree than the clinical drugs; also recorded: sensitive | IC50 [3, 5]: 0.146 µM; IC50 [3]: 0.146 µM; selective anti-cancer activity against the RMS cell lines [2]: selective anti-cancer activity; IC50(μM) CCD-18Co ([2]; MTT): No cytotoxicity; caspase-3/7 activation (SJCRH30 cells): increased level of caspase-3/7 activation; GDSC-SJCRH30 drug response (GDSC-SJCRH30 cell line): resistant
C#Cc1cccc(Nc2ncnc3cc(OC)c(OCCCCCCC(=O)NO)cc23)c1 [CUDC-101] | R | R |  | 
Cc1ccc(C(=O)N(CCCN)[C@@H](c2nc3cc(Cl)ccc3c(=O)n2Cc2ccccc2)C(C)C)cc1 [SB-715992] | R | R |  | 
O=c1cc(CN2CCOCC2)occ1OCCCCCSc1ccnc2cc(C(F)(F)F)ccc12 [EHT-1864] | R | R |  | 
Cn1nnc2c(C(N)=O)ncn2c1=O [Temozolomide] | R | R |  | 
B1 | S | R |  | 
